Here are results for one compound from publication PMC5872666, “Stimulation of Dectin-1 and Dectin-2 during Parenteral Immunization, but Not Mincle, Induces Secretory IgA in Intestinal Mucosa” (Journal of Immunology Research, 2018).

The test has as its target T1, ovalbumin (OVA) (Gallus gallus, UniProt P01012).
T1 construct: gene SERPINB14; amine-coupled to CM5 chip
T1 sequence (P01012 2-386): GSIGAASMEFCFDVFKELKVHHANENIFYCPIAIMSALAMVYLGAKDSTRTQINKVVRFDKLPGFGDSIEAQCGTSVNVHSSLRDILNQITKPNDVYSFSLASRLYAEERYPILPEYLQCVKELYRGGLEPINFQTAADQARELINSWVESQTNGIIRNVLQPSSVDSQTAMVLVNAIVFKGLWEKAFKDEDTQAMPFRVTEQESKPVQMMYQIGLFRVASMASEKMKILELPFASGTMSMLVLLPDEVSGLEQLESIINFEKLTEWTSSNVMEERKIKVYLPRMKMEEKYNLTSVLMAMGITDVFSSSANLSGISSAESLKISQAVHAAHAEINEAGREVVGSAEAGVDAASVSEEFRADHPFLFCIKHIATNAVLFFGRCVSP
Description: SPR, Biacore […]. In kind it is binding. In general terms: Surface plasmon resonance follows binding to a sensor surface in real time, without labels.

Regarding `CCCCCCCCCCCCCCCCCCCCCC(=O)OC[C@H]1O[C@H](O[C@H]2O[C@H](COC(=O)CCCCCCCCCCCCCCCCCCCCC)[C@@H](O)[C@H](O)[C@H]2O)[C@H](O)[C@@H](O)[C@@H]1O` [TDB], the dissociation constant (Kd) (in general, the concentration at which binding is half-saturated) was 0.235 nM.
